# Measured values: US20100029657A1, “Bridged, Bicyclic Heterocyclic or Spiro Bicyclic Heterocyclic Derivatives of Pyrazolo[1, 5-A]Pyrimidines, Methods for Preparation and Uses Thereof” (Wyeth, priority 2008, published 2010)
# Target: T1, Flag/GST-tagged recombinant human B-Raf (Homo sapiens, UniProt P15056)
# T1 construct: Flag; GST; made in house; host or cells: Sf9 insect cells (B-Raf); E. coli (MEK1-GST)
# Assay: B-Raf kinase assay (phosphorylation of GST-MEK1, phospho-MEK1 antibody/Europium detection)
# Type: biochemical
# Settings: B-Raf IC50 Data for compounds of Formula A; read-out: Mean IC50
# In short: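 Active B-Raf (0.2 nM) phosphorylates GST-MEK1 in 20 mM MOPS pH 7.2 buffer with DTT, vanadate and 0.01% Triton X-100. The Mg/ATP cocktail (200 μM ATP, 40 mM MgCl2) is added, then incubation runs 45 min at RT. Product is captured on anti-GST plates and detected by anti-phospho-MEK1 plus Europium-anti-rabbit fluorescence, giving % inhibition per concentration.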
# T1 sequence (P15056 whole entry): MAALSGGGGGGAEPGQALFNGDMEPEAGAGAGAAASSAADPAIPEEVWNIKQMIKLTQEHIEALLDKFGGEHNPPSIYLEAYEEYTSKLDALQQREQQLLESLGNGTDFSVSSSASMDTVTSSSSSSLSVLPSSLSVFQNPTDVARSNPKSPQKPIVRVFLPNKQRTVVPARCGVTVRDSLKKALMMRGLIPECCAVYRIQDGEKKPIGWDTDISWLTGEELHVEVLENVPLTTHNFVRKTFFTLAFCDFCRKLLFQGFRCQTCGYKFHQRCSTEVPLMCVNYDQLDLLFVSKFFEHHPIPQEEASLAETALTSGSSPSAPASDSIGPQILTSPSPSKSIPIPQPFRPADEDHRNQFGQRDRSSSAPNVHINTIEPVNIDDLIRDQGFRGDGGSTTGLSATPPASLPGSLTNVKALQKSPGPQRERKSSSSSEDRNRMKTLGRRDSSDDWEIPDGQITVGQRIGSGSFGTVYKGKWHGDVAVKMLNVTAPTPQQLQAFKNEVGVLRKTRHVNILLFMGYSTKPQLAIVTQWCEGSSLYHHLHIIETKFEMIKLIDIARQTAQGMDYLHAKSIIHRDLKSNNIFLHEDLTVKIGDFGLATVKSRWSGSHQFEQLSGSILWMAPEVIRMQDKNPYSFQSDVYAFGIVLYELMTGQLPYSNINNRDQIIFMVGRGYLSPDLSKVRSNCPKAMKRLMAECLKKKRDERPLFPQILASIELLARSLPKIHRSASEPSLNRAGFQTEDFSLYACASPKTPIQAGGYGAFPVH
row,Structure (SMILES),IC50
1,"OCCN1C2CCC1CC(c1ccnc3c(-c4cccc5[nH]ncc45)c(-c4ccncc4)nn13)C2 (stereo not drawn) [Example 112, 2-{3-[3-(1H-indazol-4-yl)-2-pyridin-4-ylpyrazolo[1,5-a]pyrimidin-7-yl]-8-azabicyclo[3.2.1]oct-8-yl}ethanol]",22.8 nM
2,"CC(C)N1C2CCC1CC(c1ccnc3c(-c4cccc5[nH]ncc45)c(-c4ccncc4)nn13)C2 (stereo not drawn) [Example 113, 3-(1H-indazol-4-yl)-7-(8-isopropyl-8-azabicyclo[3.2.1]oct-3-yl)-2-pyridin-4-ylpyrazolo[1,5-a]pyrimidine]",67 nM
3,"NC(=O)N1C2CCC1CC(c1ccnc3c(-c4cccc5[nH]ncc45)c(-c4ccncc4)nn13)C2 (stereo not drawn) [Example 115, 3-[3-(1H-indazol-4-yl)-2-pyridin-4-ylpyrazolo[1,5-a]pyrimidin-7-yl]-8-azabicyclo[3.2.1]octane-8-carboxamide]",9.1 nM
4,"CN(C)CC(=O)N1C2CCC1CC(c1ccnc3c(-c4cccc5[nH]ncc45)c(-c4ccncc4)nn13)C2 (stereo not drawn) [Example 116, 2-{3-[3-(1H-indazol-4-yl)-2-pyridin-4-ylpyrazolo[1,5-a]pyrimidin-7-yl]-8-azabicyclo[3.2.1]oct-8-yl}-N,N-dimethyl-2-oxoethanamine]",61.8 nM
5,"N#CCN1C2CCC1CC(c1ccnc3c(-c4cccc5[nH]ncc45)c(-c4ccncc4)nn13)C2 (stereo not drawn) [Example 117, {3-[3-(1H-indazol-4-yl)-2-pyridin-4-ylpyrazolo[1,5-a]pyrimidin-7-yl]-8-azabicyclo[3.2.1]oct-8-yl}acetonitrile]",2.8 nM
6,"CCNC(=O)N1C2CCC1CC(c1ccnc3c(-c4cccc5[nH]ncc45)c(-c4ccncc4)nn13)C2 (stereo not drawn) [Example 118, N-ethyl-3-[3-(1H-indazol-4-yl)-2-pyridin-4-ylpyrazolo[1,5-a]pyrimidin-7-yl]-8-azabicyclo[3.2.1]octane-8-carboxamide]",6.7 nM
7,"CC(=O)N1C2CCC1CC(c1ccnc3c(-c4cccc5[nH]ncc45)c(-c4ccncc4)nn13)C2 (stereo not drawn) [Example 119, 7-(8-acetyl-8-azabicyclo[3.2.1]oct-3-yl)-3-(1H-indazol-4-yl)-2-pyridin-4-ylpyrazolo[1,5-a]pyrimidine]",9.1 nM
8,"CN(C)C(=O)N1C2CCC1CC(c1ccnc3c(-c4cccc5[nH]ncc45)c(-c4ccncc4)nn13)C2 (stereo not drawn) [Example 120, 3-[3-(1H-indazol-4-yl)-2-pyridin-4-ylpyrazolo[1,5-a]pyrimidin-7-yl]-N,N-dimethyl-8-azabicyclo[3.2.1]octane-8-carboxamide]",6.4 nM
9,"COc1cc(-c2c(-c3ccncc3)nn3c(CN4C[C@@H]5C[C@H]4CN5C(=O)OC(C)(C)C)ccnc23)ccc1Cl [Example 121, tert-butyl (1S,4S)-5-{[3-(4-chloro-3-methoxyphenyl)-2-pyridin-4-ylpyrazolo[1,5-a]pyrimidin-7-yl]methyl}-2,5-diazabicyclo[2.2.1]heptane-2-carboxylate]",> 100 nM
10,"CC(C)(C)OC(=O)N1C[C@@H]2C[C@H]1CN2c1ccc(-c2ccn3nc(-c4ccncc4)c(-c4ccc(F)c5[nH]ncc45)c3n2)cc1 [Example 122, tert-butyl (1S,4S)-5-{4-[3-(7-fluoro-1H-indazol-4-yl)-2-pyridin-4-ylpyrazolo[1,5-a]pyrimidin-5-yl]phenyl}-2,5-diazabicyclo[2.2.1]heptane-2-carboxylate]",19.1 nM
11,"c1cc(-c2ccnc3c(-c4cccc5[nH]ncc45)c(-c4ccncc4)nn23)cc(N2C[C@@H]3C[C@H]2CN3)c1 [Example 124, 7-{3-[(1S,4S)-2,5-diazabicyclo[2.2.1]hept-2-yl]phenyl}-3-(1H-indazol-4-yl)-2-pyridin-4-ylpyrazolo[1,5-a]pyrimidine]",37.6 nM
12,"CC(C)(C)OC(=O)N1C[C@@H]2C[C@H]1CN2c1ccc(-c2ccnc3c(-c4ccc(Cl)c5[nH]ncc45)c(-c4ccncc4)nn23)cc1 [Example 125, tert-butyl (1S,4S)-5-{4-[3-(7-chloro-1H-indazol-4-yl)-2-pyridin-4-ylpyrazolo[1,5-a]pyrimidin-7-yl]phenyl}-2,5-diazabicyclo[2.2.1]heptane-2-carboxylate]",44.9 nM
13,"CN1C[C@@H]2C[C@H]1CN2c1cccc(-c2ccnc3c(-c4cccc5[nH]ncc45)c(-c4ccncc4)nn23)c1 [Example 126, 3-(1H-indazol-4-yl)-7-{3-[(1S,4S)-5-methyl-2,5-diazabicyclo[2.2.1]hept-2-yl]phenyl}-2-pyridin-4-ylpyrazolo[1,5-a]pyrimidine]",61.2 nM
14,"Clc1ccc(-c2c(-c3ccncc3)nn3c(-c4ccc(N5C[C@@H]6C[C@H]5CN6)cc4)ccnc23)c2cn[nH]c12 [Example 127, 3-(7-chloro-1H-indazol-4-yl)-7-{4-[(1S,4S)-2,5-diazabicyclo[2.2.1]hept-2-yl]phenyl}-2-pyridin-4-ylpyrazolo[1,5-a]pyrimidine]",31.3 nM
15,"CC(C)(C)OC(=O)N1CCC[C@H]1C(=O)N1C2CCC1CC(c1ccnc3c(-c4cccc5[nH]ncc45)c(-c4ccncc4)nn13)C2 (stereo partly drawn) [Example 128, tert-butyl (2S)-2-({3-[3-(1H-indazol-4-yl)-2-pyridin-4-ylpyrazolo[1,5-a]pyrimidin-7-yl]-8-azabicyclo[3.2.1]oct-8-yl}carbonyl)pyrrolidine-1-carboxylate]",39.4 nM
16,"O=C([C@@H]1CCCN1)N1C2CCC1CC(c1ccnc3c(-c4cccc5[nH]ncc45)c(-c4ccncc4)nn13)C2 (stereo partly drawn) [Example 129, 3-(1H-indazol-4-yl)-7-(8-L-prolyl-8-azabicyclo[3.2.1]oct-3-yl)-2-pyridin-4-ylpyrazolo[1,5-a]pyrimidine]",2.1 nM
17,"CC(=O)CN1C2CCC1CC(c1ccnc3c(-c4cccc5[nH]ncc45)c(-c4ccncc4)nn13)C2 (stereo not drawn) [Example 130, 1-{3-[3-(1H-indazol-4-yl)-2-pyridin-4-ylpyrazolo[1,5-a]pyrimidin-7-yl]-8-azabicyclo[3.2.1]oct-8-yl}propan-2-one]",75.9 nM
18,"CCOC(=O)N1C2CCC1CC(c1ccn3nc(-c4ccncc4)c(-c4ccc(F)c5[nH]ncc45)c3n1)C2 (stereo not drawn) [Example 131, ethyl 3-[3-(7-fluoro-1H-indazol-4-yl)-2-pyridin-4-ylpyrazolo[1,5-a]pyrimidin-5-yl]-8-azabicyclo[3.2.1]octane-8-carboxylate]",1 nM
19,"COc1cccc(-c2c(-c3ccncc3)nn3c(-c4ccc(N5C[C@@H]6C[C@H]5CN6)cc4F)ccnc23)c1 [Example 132, 7-{4-[(1S,4S)-2,5-diazabicyclo[2.2.1]hept-2-yl]-2-fluorophenyl}-3-(3-methoxyphenyl)-2-pyridin-4-ylpyrazolo[1,5-a]pyrimidine]",0.4 nM
20,"Oc1cccc(-c2c(-c3ccncc3)nn3c(-c4ccc(N5C[C@@H]6C[C@H]5CN6)cc4F)ccnc23)c1 [Example 133, 3-(7-{4-[(1S,4S)-2,5-diazabicyclo[2.2.1]hept-2-yl]-2-fluorophenyl}-2-pyridin-4-ylpyrazolo[1,5-a]pyrimidin-3-yl)phenol]",< 0.3 nM
21,"CN1C[C@@H]2C[C@H]1CN2c1ccc(-c2ccnc3c(-c4cccc(O)c4)c(-c4ccncc4)nn23)c(F)c1 [Example 134, 3-(7-{2-fluoro-4-[(1S,4S)-5-methyl-2,5-diazabicyclo[2.2.1]hept-2-yl]phenyl}-2-pyridin-4-ylpyrazolo[1,5-a]pyrimidin-3-yl)phenol]",< 0.3 nM
